Patent US12599136B2, “Substituted isophthalic acid diamides and their use as herbicides” (Bayer Aktiengesellschaft, priority 2020, dated 2026)

Assays:
Format in all cases: in vivo
[1] = test system: Echinochloa crus-galli; assay: Post-emergence herbicidal action against ECHCG; conditions: visual assessment about 3 weeks after treatment
How it was run: (§1)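 Percent herbicidal action is rated by eye about 3 weeks after treatment against untreated controls, where 100% means dead plants and 0% means like controls. Plants in sandy loam are sprayed on green parts at the one-leaf stage with aqueous WP or EC preparations at 600 to 800 l/ha plus 0.2% wetting agent.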

[2] = test system: Viola tricolor; assay: Post-emergence herbicidal action against VIOTR
How it was run: as §1

[3] = test system: Matricaria inodora; assay: Post-emergence herbicidal action against MATIN; conditions: for Post-emergence action against MATIN in %: visual assessment about 3 weeks after treatment
How it was run: as §1

[4] = test system: Veronica persica; assay: Post-emergence herbicidal action against VERPE; conditions: 20 g/ha, visual assessment about 3 weeks after treatment
How it was run: as §1

[5] = test system: Amaranthus retroflexus; assay: Pre-emergence herbicidal action against AMARE; conditions: visual score after 3 weeks vs untreated controls
How it was run: (§2)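 Seeds sown in sandy loam, soil-covered; compound sprayed on soil surface pre-emergence. Application: WP/EC, 600–800 l/ha, 0.2% wetting agent. Readout: visual % damage at 3 weeks.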

[6] = test system: Abutilon theophrasti; assay: Pre-emergence herbicidal action against ABUTH; conditions: for Pre-emergence action against ABUTH: visual score after 3 weeks vs untreated controls; for Herbicidal action against ABUTH: comparative experiment, pre-emergence
How it was run: as §2

[7] = test system: Echinochloa crus-galli; assay: Pre-emergence herbicidal action against ECHCG; conditions: for Pre-emergence action against ECHCG: 80 g/ha, visual score after 3 weeks vs untreated controls; for Herbicidal action against ECHCG: comparative experiment, pre-emergence
How it was run: as §2

[8] = test system: Matricaria inodora; assay: Pre-emergence herbicidal action against MATIN; conditions: visual score after 3 weeks vs untreated controls
How it was run: as §2

[9] = test system: Alopecurus myosuroides; assay: Pre-emergence herbicidal action against ALOMY; conditions: for Pre-emergence action against ALOMY: visual score after 3 weeks vs untreated controls; for Herbicidal action against ALOMY: comparative experiment, pre-emergence
How it was run: as §2

[10] = test system: Abutilon theophrasti; assay: Post-emergence herbicidal action against ABUTH
How it was run: as §1

[11] = test system: Pharbitis purpurea; assay: Post-emergence herbicidal action against PHBPU; conditions: for Post-emergence action against PHBPU in %: visual assessment about 3 weeks after treatment
How it was run: as §1

[12] = test system: Polygonum convolvulus; assay: Pre-emergence herbicidal action against POLCO; conditions: 80 g/ha
How it was run: as §2

[13] = test system: Amaranthus retroflexus; assay: Post-emergence herbicidal action against AMARE; conditions: visual assessment about 3 weeks after treatment
How it was run: as §1

[14] = test system: Pharbitis purpurea; assay: Pre-emergence herbicidal action against PHBPU; conditions: 80 g/ha; visual score after 3 weeks vs untreated controls
From the text: Seeds of monocotyledonous and dicotyledonous weed plants and crop plants are laid out in sandy loam soil in wood-fiber pots and covered with soil. The compounds of the invention, formulated in the form of wettable powders (WP) or as emulsion concentrates (EC), are then applied to the surface of the covering soil in the form of an aqueous suspension or emulsion at a water application rate equivalent to 600 to 800 l/ha, with addition of 0.2% wetting agent. After the treatment, the pots are placed in a greenhouse and kept under good growth conditions for the trial plants. The damage to the test plants is scored visually after a test period of 3 weeks by comparison with untreated controls (herbicidal activity in percent (%): 100% activity=the plants have died, 0% activity=like control plants). […] The tables below illustrate, in an illustrative manner, the post-emergence herbicidal action of the compounds of the invention, the herbicidal activity being stated in percent.

[15] = test system: Digitaria sanguinalis; assay: Pre-emergence herbicidal action against DIGSA
How it was run: as §2

[16] = test system: Viola tricolor; assay: Pre-emergence herbicidal action against VIOTR
How it was run: as §2

[17] = test system: Setaria viridis; assay: Pre-emergence herbicidal action against SETVI; conditions: for Herbicidal action against SETVI: comparative experiment
How it was run: as §2

[18] = test system: Setaria viridis; assay: Post-emergence herbicidal action against SETVI; conditions: for Post-emergence action against SETVI in %: visual assessment about 3 weeks after treatment
How it was run: as §1

[19] = test system: Alopecurus myosuroides; assay: Post-emergence herbicidal action against ALOMY
How it was run: as §1

[20] = test system: Veronica persica; assay: Pre-emergence herbicidal action against VERPE; conditions: 80 g/ha
How it was run: as §2

[21] = test system: Lolium rigidum; assay: Pre-emergence herbicidal action against LOLRI; conditions: 80 g/ha
How it was run: as §2

[22] = test system: Digitaria sanguinalis; assay: Post-emergence herbicidal action against DIGSA
How it was run: as §1

[23] = test system: Avena fatua; assay: Pre-emergence herbicidal action against AVEFA; conditions: for Pre-emergence action against AVEFA: visual score after 3 weeks vs untreated controls; for Herbicidal action against AVEFA: comparative experiment, pre-emergence
How it was run: as §2

[24] = comparative experiment, 5 g a.i./ha

CCN(C(=O)c1c(C(F)(F)F)ccc(C(=O)Nc2nnnn2C)c1Cl)C1CC1 [Example 1-136]
80%: Post-emergence action against VERPE in % [4] | Post-emergence action against PHBPU in % ([11]; 20 g/ha) | Pre-emergence action against POLCO [12] | Post-emergence action against ALOMY ([19]; 5 g/ha)
90%: Post-emergence action against ECHCG in % ([1]; 20 g/ha) | Post-emergence action against MATIN in % ([3]; 20 g/ha) | Pre-emergence action against AMARE ([5]; 20 g/ha) | Pre-emergence action against ABUTH ([6]; 20 g/ha) | Pre-emergence action against ECHCG [7] | Pre-emergence action against MATIN ([8]; 20 g/ha) | Post-emergence action against ABUTH ([10]; 5 g/ha) | Pre-emergence action against PHBPU [14] | Pre-emergence action against DIGSA ([15]; 20 g/ha) | Pre-emergence action against SETVI ([17]; 20 g/ha) | Post-emergence action against ALOMY ([19]; 20 g/ha)
100%: Post-emergence action against VIOTR in % ([2]; 5 g/ha) | Post-emergence action against VIOTR in % ([2]; 20 g/ha) | Pre-emergence action against AMARE ([5]; 80 g/ha) | Pre-emergence action against ABUTH ([6]; 80 g/ha) | Pre-emergence action against MATIN ([8]; 80 g/ha) | Pre-emergence action against ALOMY ([9]; 80 g/ha) | Post-emergence action against ABUTH ([10]; 20 g/ha) | Post-emergence action against AMARE in % ([13]; 5 g/ha) | Post-emergence action against AMARE in % ([13]; 20 g/ha) | Pre-emergence action against DIGSA ([15]; 80 g/ha) | Pre-emergence action against VIOTR ([16]; 20 g/ha) | Pre-emergence action against VIOTR ([16]; 80 g/ha) | Pre-emergence action against SETVI ([17]; 80 g/ha) | Post-emergence action against SETVI in % ([18]; 20 g/ha)

CN(C)C(=O)c1c(C(F)F)ccc(C(=O)Nc2nnnn2C)c1Cl [Example 1-154]
90: Herbicidal action against SETVI ([17]; 20 g a.i./ha) | Herbicidal action against ALOMY [19, 24]
100: Herbicidal action against VIOTR [2, 24] | Herbicidal action against ABUTH ([6]; 20 g a.i./ha) | Herbicidal action against ABUTH ([6]; 80 g a.i./ha) | Herbicidal action against ECHCG ([7]; 80 g a.i./ha) | Herbicidal action against ALOMY ([9]; 80 g a.i./ha) | Herbicidal action against ABUTH [10, 24] | Herbicidal action against AVEFA ([23]; 80 g a.i./ha) | Herbicidal action against VIOTR ([16]; comparative experiment, 80 g a.i./ha) | Herbicidal action against SETVI ([17]; 80 g a.i./ha) | Herbicidal action against SETVI [18, 24]
80: Herbicidal action against MATIN [3, 24] | Herbicidal action against ECHCG ([7]; 20 g a.i./ha) | Herbicidal action against PHBPU [11, 24]
100%: Post-emergence action against VIOTR in % ([2]; 5 g/ha) | Post-emergence action against VIOTR in % ([2]; 20 g/ha) | Pre-emergence action against AMARE ([5]; 80 g/ha) | Pre-emergence action against ABUTH ([6]; 80 g/ha) | Pre-emergence action against ECHCG [7] | Pre-emergence action against ALOMY ([9]; 80 g/ha) | Post-emergence action against ABUTH ([10]; 5 g/ha) | Post-emergence action against ABUTH ([10]; 20 g/ha) | Post-emergence action against AMARE in % ([13]; 20 g/ha) | Pre-emergence action against AVEFA ([23]; 80 g/ha) | Pre-emergence action against DIGSA ([15]; 20 g/ha) | Pre-emergence action against DIGSA ([15]; 80 g/ha) | Pre-emergence action against VIOTR ([16]; 80 g/ha) | Pre-emergence action against SETVI ([17]; 80 g/ha) | Post-emergence action against SETVI in % ([18]; 5 g/ha) | Post-emergence action against SETVI in % ([18]; 20 g/ha) | Post-emergence action against ALOMY ([19]; 20 g/ha)
90%: Post-emergence action against ECHCG in % ([1]; 5 g/ha) | Post-emergence action against ECHCG in % ([1]; 20 g/ha) | Post-emergence action against MATIN in % ([3]; 20 g/ha) | Pre-emergence action against LOLRI [21] | Pre-emergence action against AMARE ([5]; 20 g/ha) | Post-emergence action against DIGSA in % ([22]; 5 g/ha) | Post-emergence action against DIGSA in % ([22]; 20 g/ha) | Pre-emergence action against MATIN ([8]; 80 g/ha) | Pre-emergence action against ALOMY ([9]; 20 g/ha) | Post-emergence action against PHBPU in % ([11]; 20 g/ha) | Post-emergence action against AMARE in % ([13]; 5 g/ha) | Post-emergence action against ALOMY ([19]; 5 g/ha)
70: Herbicidal action against ALOMY ([9]; 20 g a.i./ha)
80%: Pre-emergence action against VERPE [20] | Post-emergence action against MATIN in % ([3]; 5 g/ha) | Pre-emergence action against MATIN ([8]; 20 g/ha) | Post-emergence action against PHBPU in % ([11]; 5 g/ha) | Pre-emergence action against POLCO [12] | Pre-emergence action against AVEFA ([23]; 20 g/ha)
50: Herbicidal action against AVEFA ([23]; 20 g a.i./ha)

CCN(CC)C(=O)c1c(Br)ccc(C(=O)Nc2nnnn2C)c1Cl [Example 1-200]
100%: Post-emergence action against ECHCG in % ([1]; 20 g/ha) | Pre-emergence action against VERPE [20] | Pre-emergence action against AMARE ([5]; 80 g/ha) | Pre-emergence action against ABUTH ([6]; 80 g/ha) | Pre-emergence action against MATIN ([8]; 80 g/ha) | Pre-emergence action against ALOMY ([9]; 80 g/ha) | Post-emergence action against AMARE in % ([13]; 5 g/ha) | Post-emergence action against AMARE in % ([13]; 20 g/ha) | Pre-emergence action against VIOTR ([16]; 80 g/ha) | Pre-emergence action against SETVI ([17]; 80 g/ha)
90%: Post-emergence action against VERPE in % [4] | Pre-emergence action against AMARE ([5]; 20 g/ha) | Pre-emergence action against ABUTH ([6]; 20 g/ha) | Post-emergence action against ABUTH ([10]; 20 g/ha) | Post-emergence action against PHBPU in % ([11]; 20 g/ha) | Post-emergence action against SETVI in % ([18]; 20 g/ha)
80%: Post-emergence action against VIOTR in % ([2]; 5 g/ha) | Post-emergence action against VIOTR in % ([2]; 20 g/ha) | Post-emergence action against ABUTH ([10]; 5 g/ha) | Pre-emergence action against PHBPU [14] | Post-emergence action against SETVI in % ([18]; 5 g/ha)

CCN(CC)C(=O)c1c(Br)ccc(C(=O)Nc2nnnn2CC)c1Cl [Example 2-200]
90%: Pre-emergence action against VERPE [20] | Post-emergence action against VERPE in % [4] | Pre-emergence action against ECHCG [7] | Pre-emergence action against MATIN ([8]; 20 g/ha) | Pre-emergence action against ALOMY ([9]; 20 g/ha) | Pre-emergence action against PHBPU [14] | Pre-emergence action against AVEFA ([23]; 80 g/ha)
100%: Post-emergence action against VIOTR in % ([2]; 20 g/ha) | Pre-emergence action against AMARE ([5]; 20 g/ha) | Pre-emergence action against AMARE ([5]; 80 g/ha) | Pre-emergence action against ABUTH ([6]; 20 g/ha) | Pre-emergence action against ABUTH ([6]; 80 g/ha) | Pre-emergence action against MATIN ([8]; 80 g/ha) | Pre-emergence action against ALOMY ([9]; 80 g/ha) | Post-emergence action against AMARE in % ([13]; 5 g/ha) | Post-emergence action against AMARE in % ([13]; 20 g/ha) | Pre-emergence action against VIOTR ([16]; 80 g/ha) | Pre-emergence action against SETVI ([17]; 80 g/ha) | Post-emergence action against SETVI in % ([18]; 5 g/ha) | Post-emergence action against SETVI in % ([18]; 20 g/ha) | Post-emergence action against ALOMY ([19]; 20 g/ha)
80;; %: Post-emergence action against MATIN in % ([3]; 20 g/ha)
80%: Post-emergence action against ABUTH ([10]; 5 g/ha) | Post-emergence action against PHBPU in % ([11]; 20 g/ha) | Pre-emergence action against VIOTR ([16]; 20 g/ha)
100;; %: Post-emergence action against ABUTH ([10]; 20 g/ha)
